The record followed here is PMC9988962 (Scientific Reports, 2023).

Values after ≈ are worked out from the molar mass of the structure shown. Residues, ends and D or L forms follow the SMILES beside them. *: point of attachment. NH(β-GlcNAc) = CC(=O)N[C@@H]1[C@@H](O)[C@H](O)[C@@H](CO)O[C@H]1N*

In data set [1] the test system is Bacillus subtilis 6633. The data set can be described thus: microbe, parasite or virus in culture. Here is the method:
(§1) Starting from a peptide stock solution, two-fold serial dilutions were sequentially carried out, accordingly to the broth microdilution method. Following over-night incubation, MIC100 values were determined as the lowest peptide concentration needed for no visible bacterial growth.

In data set [2] the test system is MRSA WKZ-2. The experiment in a line: microbe, parasite or virus in culture. The procedure:
as §1

The subject of data set [3] is Escherichia coli ATCC 25,922. The experiment in a line: microbe, parasite or virus in culture. The procedure: as §1
The test system of data set [4] is Bacillus globigii TNO BMO13. The experiment in a line: microbe, parasite or virus in culture. Here is the method: as §1
Data set [5] relates to Klebsiella pneumoniae ATCC 700,603. The experiment in a line: microbe, parasite or virus in culture. Here is the method:
as §1

For data set [6], the system named is Acinetobacter baumannii ATCC 17,978. The experiment in a line: microbe, parasite or virus in culture. The procedure:
as §1

The subject of data set [7] is Pseudomonas aeruginosa 01. The experiment in a line: microbe, parasite or virus in culture. The procedure:
as §1

Data set [8] has as its system Staphylococcus aureus ATCC 29,213. The data set can be described thus: microbe, parasite or virus in culture. The procedure:
as §1

Data set [9] deals with Escherichia coli ATCC 25,922. The note with it: E. coli ATCC 25,922; 200 μM peptide solution with fetal bovine serum 1:1 (v/v), 24 h, 37 °C, then MIC. Here is the method:
as §1
(§2) For comparison, the MIC values of untreated peptides (incubated in water) were also determined.

For data set [10], the system named is Escherichia coli ATCC 25,922. The conditions noted are these: for MIC after treatment with pepsin / MIC after treatment with α-chymotrypsin: E. coli ATCC 25,922, 37 °C, 15 min, then MIC; for MIC after treatment with pepsin: 100 μM peptide incubated with 100 nM pepsin; for MIC after treatment with α-chymotrypsin: 100 μM peptide incubated with 100 nM α-chymotrypsin. Here is the method: as §1
(§3) To analyze the stability of the peptides to the proteases, 100 μM of LL-III and glycosylated LL-III were incubated with 100 nM of α-chymotrypsin or pepsin at 37 °C for 15 min and then antimicrobial activity were assayed as reported above. The peptide solution without proteases was used as the control group.

In data set [11] the test system is Escherichia coli ATCC 25,922. The note with it: E. coli ATCC 25,922; peptide incubated in water without proteases or serum. Here is the method:
as §1, §3, §2

Data set [12] concerns BALB/c 3T3 cells (normal murine fibroblasts). The conditions noted are these: BALB/c 3T3, two-fold dilutions of peptide, 24 h, 37 °C, 5% CO2, three independent experiments. The procedure:
In brief, 5·10^3 cells were seeded on a 96-well plate and after 16 h treated with increasing concentrations of peptides for 24 h at 37 °C and 5% CO2. Cell viability was analyzed by performing the (3-(4,5-dimethylthiazol-2-yl)-2,5 diphenyltetrazolium bromide) reduction inhibition assay (MTT assay)[42].
Normal and transformed murine fibroblasts, 3T3 and SVT2, were treated with increasing concentration of the two peptides. After 24 h of incubation at 37 °C and 5% CO2, cells mitochondrial activity was measured performing MTT assay.

Where [13] appears, read: Bacillus subtilis 6633, 1 × 10^6 CFU/mL, 0.5X Nutrient Broth, over-night, MIC100.
Where [14] appears, read: MRSA WKZ-2, 1 × 10^6 CFU/mL, 0.5X Nutrient Broth, over-night, MIC100.
The mark [15] stands for this setting: Escherichia coli ATCC 25,922, 1 × 10^6 CFU/mL, 0.5X Nutrient Broth, over-night, MIC100.
Where [16] appears, read: Bacillus globigii TNO BMO13, 1 × 10^6 CFU/mL, 0.5X Nutrient Broth, over-night, MIC100.
[17] abbreviates: Klebsiella pneumoniae ATCC 700,603, 1 × 10^6 CFU/mL, 0.5X Nutrient Broth, over-night, MIC100.
[18] abbreviates: Acinetobacter baumannii ATCC 17,978, 1 × 10^6 CFU/mL, 0.5X Nutrient Broth, over-night, MIC100.
[19] abbreviates: Pseudomonas aeruginosa 01, 1 × 10^6 CFU/mL, 0.5X Nutrient Broth, over-night, MIC100.
The mark [20] stands for this setting: Staphylococcus aureus ATCC 29,213, 1 × 10^6 CFU/mL, 0.5X Nutrient Broth, over-night, MIC100.
[21] abbreviates: from MIC values against E. coli after 15 min at 37 °C with protease.

Consider `O=C(O)c1cn(C2CC2)c2cc(N3CCNCC3)c(F)cc2c1=O` [Ciprofloxacin], for which the MIC in [1] (Bacillus subtilis, 6633) worked out at 0.15 µM (≈ 0.0497 µg/mL); in [2] (Staphylococcus aureus, MRSA), 0.3 µM (≈ 0.0994 µg/mL); in data set [3] (Escherichia coli) it was 0.15 µM (≈ 0.0497 µg/mL); in [4] (Bacillus subtilis, TNOBMO13), 0.3 µM (≈ 0.0994 µg/mL); in [5] (Klebsiella pneumoniae), 1.2 µM (≈ 0.398 µg/mL); in data set [6] (Acinetobacter baumannii), 0.15 µM (≈ 0.0497 µg/mL). Besides, the MIC in [7] (Pseudomonas aeruginosa, 01) turned out to be 0.3 µM (≈ 0.0994 µg/mL); in data set [8] (Staphylococcus aureus, ATCC29) it was 0.6 µM (≈ 0.199 µg/mL).

As to `CC[C@H](C)[C@H](NC(=O)[C@H](CCCCN)NC(=O)[C@H](CCCCN)NC(=O)[C@H](Cc1c[nH]c2ccccc12)NC(=O)[C@H](CC(N)=O)NC(=O)[C@@H](N)C(C)C)C(=O)N[C@@H](CC(C)C)C(=O)NCC(=O)N[C@@H](CCCCN)C(=O)N[C@H](C(=O)N[C@H](C(=O)N[C@@H](CCCCN)C(=O)N[C@H](C(=O)N[C@H](C(=O)N[C@@H](CCCCN)C(N)=O)C(C)C)C(C)C)[C@@H](C)CC)[C@@H](C)CC` [LL-III, Lasioglossin III] (H-VNWKKILGKIIKVVK-NH2), the “MIC after treatment with 50% FBS” value in data set [9] was found to be 6.25 µM. The MIC was 1.56 µM (≈ 2.75 µg/mL) in [1] (setting [13]); 3.12 µM (≈ 5.51 µg/mL) in data set [2] (setting [14]); 3.12 µM (≈ 5.51 µg/mL) in data set [3] (setting [15]); 1.56 µM (≈ 2.75 µg/mL) in [4] (setting [16]); 3.12 µM (≈ 5.51 µg/mL) in data set [5] (setting [17]); 3.12 µM (≈ 5.51 µg/mL) in data set [6] (setting [18]). In addition, the MIC in [7] (setting [19]) and in [8] (setting [20]) was 1.56 µM (≈ 2.75 µg/mL) in each case. Further, the “MIC after treatment with pepsin” value in data set [10] was found to be 12.5 µM. Also, in [10], the “MIC after treatment with α-chymotrypsin” value is recorded as 25 µM. Besides, the “MIC after treatment in water (control)” value in data set [11] is given as 3.12 µM (≈ 5.51 µg/mL).

Regarding `CC[C@H](C)[C@H](NC(=O)[C@H](CCCCN)NC(=O)[C@H](CCCCN)NC(=O)[C@H](Cc1c[nH]c2ccccc12)NC(=O)[C@H](CC(=O)N[C@@H]1O[C@H](CO)[C@@H](O)[C@H](O)[C@H]1NC(C)=O)NC(=O)[C@@H](N)C(C)C)C(=O)N[C@@H](CC(C)C)C(=O)NCC(=O)N[C@@H](CCCCN)C(=O)N[C@H](C(=O)N[C@H](C(=O)N[C@@H](CCCCN)C(=O)N[C@H](C(=O)N[C@H](C(=O)N[C@@H](CCCCN)C(N)=O)C(C)C)C(C)C)[C@@H](C)CC)[C@@H](C)CC` [g-LL-III] (H-VD(NH(β-GlcNAc))WKKILGKIIKVVK-NH2), in [9], the “MIC after treatment with 50% FBS” value was found to be 3.12 µM. For the same compound, the MIC was determined as 1.56 µM (≈ 3.07 µg/mL) in [1] (setting [13]); 3.12 µM (≈ 6.14 µg/mL) in data set [2] (setting [14]); 3.12 µM (≈ 6.14 µg/mL) in [3] (setting [15]); 1.56 µM (≈ 3.07 µg/mL) in [4] (setting [16]); 3.12 µM (≈ 6.14 µg/mL) in data set [5] (setting [17]); 3.12 µM (≈ 6.14 µg/mL) in [6] (setting [18]). Further, the MIC in [7] (setting [19]) stood at 3.12 µM (≈ 6.14 µg/mL); in data set [8] (setting [20]), 1.56 µM (≈ 3.07 µg/mL). For the same compound, the “cell viability (MTT), g-LL-III compared with LL-III” value in data set [12] was “no significant differences”. Also, the “MIC after treatment with pepsin” value in data set [10] is given as 6.25 µM. In data set [10], the “MIC after treatment with α-chymotrypsin” value worked out at 6.25 µM. Also, the “reduction of susceptibility to pepsin versus parental peptide” value in data set [10] (setting [21]) was 2 times. In addition, the “reduction of susceptibility to α-chymotrypsin versus parental peptide” value in data set [10] (setting [21]) is reported as 4 times. The “MIC after treatment in water (control)” value in [11] stood at 3.12 µM (≈ 6.14 µg/mL).
